The values that follow come from patent US9770446B2, “Piperidine urea derivatives” (MERCK PATENT GMBH, priority 2013, dated 2017).

For test [1], the target named is T1, GST-tagged Tnks-1 (1023-1327 aa) (Homo sapiens, UniProt O95271).
T1 construct: GST-tagged Tnks-1 (1023-1327 aa, prepared in-house); made in house
Kind of test: TNKS1 activity ELISA (autoparsylation assay). Format: biochemical. An outline of the steps: (§1)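 Each GST-tagged enzyme (20 ng/well) was captured overnight at 4 °C on glutathione plates, then auto-ADP-ribosylated with 10 μM biotin-NAD for 1 h at 30 °C, pH 7.7, 0.5% DMSO, compound at 10 concentrations. Streptavidin-HRP chemiluminescence measured the signal. IC50 relative to inhibitor-free reaction, with 5 μM XAV-939 defining zero.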
For orientation: ELISA stands for enzyme-linked immunosorbent assay.

The subject of a further test is Tankyrase. Kind of test: Cellular inhibition of Tankyrase: Axin2 level in DLD1 cells (Luminex). Type of test: cell-based. The note with it: 24 hours, Axin2 increase, read-out: EC50 [M] TNKS cellular assay. The essentials: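 DLD1 colon carcinoma cells treated 24 h with seven-step serial dilutions in triplicate (0.3% DMSO final). Axin2 in cleared lysates captured on anti-Axin2 beads, detected with polyclonal anti-Axin2 plus PE secondary, and quantified by Luminex. EC50 from data normalized to solvent control; IWR-2 (3E-06 M) marks maximal Axin2 increase.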

For test [2], the target named is T2, GST-tagged Tnks-2 (873-1166 aa) (Homo sapiens, UniProt Q9H2K2).
T2 construct: GST-tagged Tnks-2 (873-1166 aa, prepared in-house); made in house
Description: TNKS2 activity ELISA (autoparsylation assay). Format: biochemical. The essentials: as §1

The next test concerns the target T3, His-tagged Parp-1 (Homo sapiens, UniProt P09874).
T3 construct: purchased Enzo Life Sciences GmbH, Lörrach, Germany
Description: PARP-1 autoparsylation HTRF assay. Type of test: biochemical. An excerpt: Description of the PARP1 Assay
Biochemical Activity Testing of PARP-1: Autoparsylation Assay
The autoparsylation assay is run in two steps: the enzymatic reaction in which His-tagged Parp-1 transfers biotinylated ADP-ribose/ADP-ribose to itself from biotinylated NAD/NAD as co-substrate and the detection reaction where a time resolved FRET between cryptate labelled anti-His antibody bound to the His tag of the enzyme and Xlent® labelled-streptavidin bound the biotin-parsylation residue is analysed. The autoparsylation activity is detectable directly via the increase in HTRF signal.
The autoparsylation assay is performed as 384-well HTRF® (Cisbio, Codolet, France) assay format in Greiner low volume nb 384-well microtiter plates. 35 nM His-tagged Parp-1 (human, recombinant, Enzo Life Sciences GmbH, Lörrach, Germany) and a mixture of 125 nM bio-NAD (Biolog, Life science Inst., Bremen, Germany) and 800 nM NAD as co-substrate are incubated in a total volume of 6 μl (100 mM Tris/HCl, 4 mM Mg-chloride, 0.01% IGEPAL® CA630, 1 mM DTT, 0.5% DMSO, pH 8, 13 ng/μl activated DNA (BPS Bioscience, San Diego, US)) in the absence or presence of the test compound (10 dilution concentrations) for 150 min at 23° C. The reaction is stopped by the addition of 4 μl of the Stop/detection solution (70 nM SA-Xlent® (Cisbio, Codolet, France), 2.5 nM Anti-His-K® (Eu-labelled anti-His, Cisbio, Codolet, France) in 50 mM HEPES, 400 mM KF, 0.1% BSA, 20 mM EDTA, pH 7.0). After 1 h incubation at room temperature the HTRF iss measured with an Envision multimode reader (Perkin Elmer LAS Germany GmbH) at excitation wavelength 340 nm (laser mode) and emission wavelengths 615 nm and 665 nm. The ratio of the emission signals is determined. The full value used is the inhibitor-free reaction. The pharmacological zero value used is Olaparib (LClabs, Woburn, US) in a final concentration of 1 μM. The inhibitory values (IC50) are determined using either the program Symyx Assay Explorer® or Condosseo® from GeneData.
(TR-FRET usually uses a lanthanide donor and a delayed reading to cut background.)

Another test has as its system ρ-catenin. The note with it: by increasing the levels of the AXIN1 and AXIN2 proteins; cited from earlier work.
The next test has as its system DLD-1-cancer cells. The note with it: cited from earlier work.

T3 sequence (P09874 whole entry): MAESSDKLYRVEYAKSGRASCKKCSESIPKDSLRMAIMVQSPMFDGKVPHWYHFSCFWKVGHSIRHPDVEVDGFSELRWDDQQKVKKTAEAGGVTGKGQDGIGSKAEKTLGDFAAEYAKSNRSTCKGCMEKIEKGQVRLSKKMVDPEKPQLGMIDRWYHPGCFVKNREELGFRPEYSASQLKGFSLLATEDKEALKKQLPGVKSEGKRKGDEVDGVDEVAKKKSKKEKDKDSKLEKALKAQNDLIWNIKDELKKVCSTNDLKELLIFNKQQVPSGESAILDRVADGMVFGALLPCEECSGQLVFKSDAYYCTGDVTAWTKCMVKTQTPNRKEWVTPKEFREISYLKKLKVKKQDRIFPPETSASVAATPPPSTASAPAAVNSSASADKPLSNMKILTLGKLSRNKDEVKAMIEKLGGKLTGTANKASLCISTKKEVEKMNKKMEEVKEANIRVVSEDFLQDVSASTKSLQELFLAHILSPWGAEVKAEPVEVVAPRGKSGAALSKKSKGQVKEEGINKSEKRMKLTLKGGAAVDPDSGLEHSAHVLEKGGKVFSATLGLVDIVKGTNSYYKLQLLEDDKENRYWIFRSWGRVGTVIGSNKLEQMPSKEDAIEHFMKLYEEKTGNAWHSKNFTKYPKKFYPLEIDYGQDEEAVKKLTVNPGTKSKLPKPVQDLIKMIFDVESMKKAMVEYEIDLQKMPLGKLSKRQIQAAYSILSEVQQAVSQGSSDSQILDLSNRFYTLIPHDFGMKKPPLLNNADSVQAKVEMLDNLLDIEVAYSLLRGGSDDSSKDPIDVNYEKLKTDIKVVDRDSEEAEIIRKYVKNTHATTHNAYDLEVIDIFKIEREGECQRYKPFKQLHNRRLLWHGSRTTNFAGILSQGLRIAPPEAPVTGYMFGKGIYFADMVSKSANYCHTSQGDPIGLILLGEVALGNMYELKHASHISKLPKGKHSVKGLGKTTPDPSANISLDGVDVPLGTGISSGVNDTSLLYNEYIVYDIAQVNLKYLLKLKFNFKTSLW
T1 sequence (O95271 1023-1327): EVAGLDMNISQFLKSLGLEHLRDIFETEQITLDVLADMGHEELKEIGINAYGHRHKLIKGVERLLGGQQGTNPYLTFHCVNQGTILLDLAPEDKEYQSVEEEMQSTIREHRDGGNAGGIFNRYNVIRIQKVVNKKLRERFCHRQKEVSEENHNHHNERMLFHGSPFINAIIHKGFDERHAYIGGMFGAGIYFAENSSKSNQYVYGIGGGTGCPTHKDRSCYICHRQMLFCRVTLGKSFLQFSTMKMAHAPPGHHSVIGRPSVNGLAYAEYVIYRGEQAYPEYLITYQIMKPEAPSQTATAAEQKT
T2 sequence (Q9H2K2 873-1166): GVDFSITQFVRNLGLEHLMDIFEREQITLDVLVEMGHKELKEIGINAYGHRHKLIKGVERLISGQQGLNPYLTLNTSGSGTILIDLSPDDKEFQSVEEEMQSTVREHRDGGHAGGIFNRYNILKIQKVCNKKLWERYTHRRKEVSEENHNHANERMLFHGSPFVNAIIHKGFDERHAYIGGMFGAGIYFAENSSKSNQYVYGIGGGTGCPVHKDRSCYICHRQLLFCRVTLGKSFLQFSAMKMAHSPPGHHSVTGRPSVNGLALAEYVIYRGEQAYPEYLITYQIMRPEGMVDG

For `CCn1cc(-c2ccc(C(=O)C3CCN(C(=O)N(C)c4ccc(OC)cc4)CC3)cc2)cn1` [Compound A33, 4-[4-(1-ethyl-1H-pyrazol-4-yl)-benzoyl]-piperidine-1-carboxylic acid (4-methoxy-phenyl)-methyl-amide], the concentration for half-maximal inhibition (IC50) in test [1] was < 0.3 µM; in test [2], < 0.3 µM; against His-tagged Parp-1, 3 to 50 µM. Also, the EC50 with Tankyrase was < 3e-07 M.
For `CCn1cc(-c2ccc(N(C)C(=O)N3CCC(C(=O)c4ccc(OC)cc4)CC3)cc2)cn1` [Compound A34, 4-(4-methoxy-benzoyl)-piperidine-1-carboxylic acid [4-(1-ethyl-1H-pyrazol-4-yl)-phenyl]-methyl-amide], the results for the half-maximal inhibitory concentration (IC50) (in test [1]; in test [2]; on His-tagged Parp-1) were < 0.3 µM, < 0.3 µM and 3 to 50 µM, respectively. For the same compound, the concentration for a half-maximal effect (EC50) with Tankyrase is < 3e-07 M.
With `COc1ccc(N(C)C(=O)N2CCC(C(=O)c3ccc(-c4cnn(CCN5CCCC5)c4)cc3)CC2)cc1` [Compound A35, 4-{4-[1-(2-pyrrolidin-1-yl-ethyl)-1H-pyrazol-4-yl]-benzoyl}-piperidine-1-carboxylic acid (4-methoxy-phenyl)-methyl-amide], the IC50 in test [1] was < 0.3 µM; in test [2], < 0.3 µM; at His-tagged Parp-1 it was 3 to 50 µM. In addition, the concentration for a half-maximal effect (EC50) with Tankyrase is < 3e-07 M.
As to `COc1ccc(C(=O)C2CCN(C(=O)N(C)c3ccc(-c4cnn(CCN5CCCC5)c4)cc3)CC2)cc1` [Compound A36, 4-(4-methoxy-benzoyl)-piperidine-1-carboxylic acid methyl-{4-[1-(2-pyrrolidin-1-yl-ethyl)-1H-pyrazol-4-yl]-phenyl}-amide], the half-maximal inhibitory concentration (IC50) was < 0.3 µM in test [1], < 0.3 µM in test [2] and 3 to 50 µM at His-tagged Parp-1. The concentration for a half-maximal effect (EC50) with Tankyrase was < 3e-07 M.
For the compound `CCOC(=O)CN(C(=O)N1CCC(C(=O)c2ccccc2)CC1)c1ccccc1` [Compound A39, [(4-benzoyl-piperidine-1-carbonyl)-phenyl-amino]-acetic acid ethyl ester], the IC50 is < 0.3 µM in test [1], < 0.3 µM in test [2] and 3 to 50 µM at His-tagged Parp-1. In addition, the EC50 with Tankyrase fell in the range of 3e-07 to 3e-06 M.
Take `Oc1nc(-c2ccc(C(F)(F)F)cc2)nc2c1CSCC2` [XAV939]: the “Wnt-stimulated accumulation of ρ-catenin” value with ρ-catenin is “blocked”. Further, the “growth of DLD-1-cancer cells” value in the test on DLD-1-cancer cells is “inhibits growth”.

In general, IC50 refers to the concentration that gives 50% inhibition. Low values mean greater potency in that assay, high ones weaker potency in that assay. The term EC50 denotes the concentration at which the effect is half-maximal.
